From patent US5459148A, “Biphenyl derivatives and their use for the treatment of hypertension and cardiac disease” (Sankyo Company, Limited, priority 1992, dated 1995)

Each compound was assayed against T1, AII receptor (Rattus norvegicus, UniProt P25095) (assay: Inhibition of pressor response to intravenous angiotensin II (AII receptor blocking activity)). Conditions: 2 min, read-out: ID50 (dose required to inhibit the pressor response to intravenous angiotensin II by fifty percent).
T1 construct: from tissue; host or cells: whole anesthetized male Wister-Imamichi rat (in vivo, blood pressure in the femoral artery)
T1 sequence (P25095 1-359): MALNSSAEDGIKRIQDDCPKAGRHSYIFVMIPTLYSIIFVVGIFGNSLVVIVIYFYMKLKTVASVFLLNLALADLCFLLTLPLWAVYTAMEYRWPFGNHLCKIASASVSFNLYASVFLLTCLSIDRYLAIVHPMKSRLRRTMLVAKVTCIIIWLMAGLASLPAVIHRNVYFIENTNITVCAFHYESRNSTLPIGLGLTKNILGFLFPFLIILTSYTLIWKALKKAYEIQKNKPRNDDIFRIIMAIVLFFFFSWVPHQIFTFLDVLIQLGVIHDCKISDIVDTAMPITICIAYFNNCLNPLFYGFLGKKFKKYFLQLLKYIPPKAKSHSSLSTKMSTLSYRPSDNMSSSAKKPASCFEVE
Format: in vivo, rat (male Wister-Imamichi)
Procedure: Evaluation of AII receptor blocking activity by Inhibition of pressor response to angiotensin II
The biological activity of each compound was assessed by determining the dose required to inhibit the pressor response to intravenous angiotensin II by fifty percent (ID50) in rats. Male Wister-Imamichi rats, each weighing 300 to 400 g, were anesthesized by intraperitoneal injection of 100 mg/Kg of sodium thiobutabarbital [Inactin (trade name)] and two cannulae were inserted: one into the femoral artery for measuring blood pressure and the other into the femoral vein for injecting drugs. […] The percent inhibitions of the pressor response to angiotensin II by progressive increase of the test compound was used to calculate the value of ID50. Angiotensin II was used in this test dissolved in 0.5% bovine serum albumin (BSA) and the test compounds were dissolved in 100% dimethyl sulfoxide (DMSO).

Row | Compound | ED50
1 | CCCc1nc(C(C)(C)O)c(C(=O)O)n1Cc1ccc(-c2ccccc2C(=O)C(=O)O)cc1 [Example 1, 4-(1-Hydroxy-1-methylethyl)-1-[(2'-oxalobiphenyl-4-yl)methyl]-2-propylimidazole-5-carboxylic acid] | 0.0065 mg/kg
2 | CCCCc1nc(C(C)(C)O)c(C(=O)O)n1Cc1ccc(-c2ccccc2C(=O)C(=O)O)cc1 [Example 2, 2-Butyl-4-(1-hydroxy-1-methylethyl)-1-[(2'-oxalobiphenyl-4-yl)methyl]imidazole-5-carboxylic acid] | 0.026 mg/kg
3 | CCCc1nc(C(O)C(C)C)c(C(N)=O)n1Cc1ccc(-c2ccccc2C(=O)C(=O)O)cc1 (stereo not shown) [Example 10, 4-(1-Hydroxy-2-methylpropyl)-1-[(2'-oxalobiphenyl-4-yl)-methyl]-2-propylimidazole-5-carboxamide] | 0.022 mg/kg
4 | CCCc1nc(C(C)C)c(C(=O)O)n1Cc1ccc(-c2ccccc2C(=O)C(=O)O)cc1 [Example 9, 4-Isopropyl-1-[(2'-oxalobiphenyl-4-yl)methyl]-2-propylimidazole-5-carboxylic acid] | 0.053 mg/kg
5 | CCCc1nc(C(C)(C)O)c(-c2nnn[nH]2)n1Cc1ccc(-c2ccccc2C(=O)C(=O)O)cc1 [Example 7, {4'-[4-(1-Hydroxy-1-methylethyl)-2-propyl-5-(tetrazol-5-yl)imidazol-1-ylmethyl]biphenyl-2-yl}glyoxylic acid] | 0.021 mg/kg
6 | CCCc1nc(C(O)C(C)(C)C)c(C(N)=O)n1Cc1ccc(-c2ccccc2C(=O)C(=O)O)cc1 (stereo not shown) [Example 11, 4-(1-Hydroxy-2,2-dimethylpropyl)-1-[(2'-oxalobiphenyl-4-yl)methyl]-2-propylimidazole-5-carboxamide] | 0.017 mg/kg
7 | CCCc1nc(CO)c(C(=O)O)n1Cc1ccc(-c2ccccc2C(=O)C(=O)O)cc1 [Example 6, 4-Hydroxymethyl-1-[(2'-oxalobiphenyl-4-yl)methyl]-2-propylimidazole-5-carboxylic acid] | 0.02 mg/kg
8 | C=C(C)c1nc(CCC)n(Cc2ccc(-c3ccccc3C(=O)C(=O)O)cc2)c1C(=O)O [Example 8, 4-Isopropenyl-1-[(2'-oxalobiphenyl-4-yl)methyl]-2-propylimidazole-5-carboxylic acid] | 0.06 mg/kg

The next lines start with the values.

Row | ED50 | Compound
9 | 0.042 mg/kg | CCCCc1nc(C(O)C(C)C)c(C(N)=O)n1Cc1ccc(-c2ccccc2C(=O)C(=O)O)cc1 (stereo not shown) [Example 12, 2-Butyl-4-(1-hydroxy-2-methylpropyl)-1-[(2'-oxalobiphenyl-4-yl)methyl]imidazole-5-carboxamide]
10 | 0.024 mg/kg | CCc1nc2c(C)cc(C)nc2n1Cc1ccc(-c2ccccc2C(=O)C(=O)O)cc1 [Example 16, 2-Ethyl-5,7-dimethyl-3-(2'-oxalobiphenyl-4-yl)methyl-3H-imidazo[4,5-b]pyridine]
11 | 0.026 mg/kg | CCCc1nc(C(C)(C)O)c(C(=O)O)n1Cc1ccc(-c2ccccc2C(=O)c2nnn[nH]2)cc1 [Example 20, 4-(1-Hydroxy-1-methylethyl)-1-{[2'-(tetrazol-5-ylcarbonyl)biphenyl-4-yl]methyl}-2-propylimidazole-5-carboxylic acid]
12 | 0.048 mg/kg | CCCCc1nc(C(O)C(C)(C)C)c(C(N)=O)n1Cc1ccc(-c2ccccc2C(=O)C(=O)O)cc1 (stereo not shown) [Example 13, 2-Butyl-4-(1-hydroxy-2,2-dimethylpropyl)-1-[(2'-oxalobiphenyl-4-yl)methyl]imidazole-5-carboxamide]
13 | 0.0096 mg/kg | CCOCc1nc(C(C)(C)O)c(C(=O)O)n1Cc1ccc(-c2ccccc2C(=O)C(=O)O)cc1 [Example 14, 2-Ethoxymethyl-4-(1-hydroxy-1-methylethyl)-1-[(2'-oxalobiphenyl-4-yl)methyl]imidazole-5-carboxylic acid]
